Results taken from patent publication US20170136085A1, “TARGETED THERAPEUTICS” (SYNTA PHARMACEUTICALS CORP., priority 2014, published 2017).

Tested on: HER2
Assay: Degradation of HER2 in cells, Method 1 (SDS-PAGE / immunoblot)
Format: cell-based
Conditions: BT-474 cells, 0.5 μM, overnight in DMEM medium
Method: BT-474 cells are treated with 0.5 μM, 2 μM, or 5 μM of 17-AAG (a positive control) or 0.5 μM, 2 μM, or 5 μM of an Hsp90-targeting moiety or conjugate of the invention overnight in DMEM medium. After treatment, each cytoplasmic sample is prepared from 1×10^6 cells by incubation of cell lysis buffer (#9803, Cell Signaling Technology) on ice for 10 minutes. The resulting supernatant used as the cytosol fractions is dissolved with sample buffer for SDS-PAGE and run on a SDS-PAGE gel, blotted onto a nitrocellulose membrane by using semi-dry transfer. Non-specific binding to nitrocellulose is blocked with 5% skim milk in TBS with 0.5% Tween at room temperature for 1 hour, then probed with anti-HER2/ErB2 mAb (rabbit IgG, #2242, Cell Signaling) and anti-Tubulin (T9026, Sigma) as housekeeping control protein. HRP-conjugated goat anti-rabbit IgG (H+L) and HRP-conjugated horse anti-mouse IgG (H+L) are used as secondary Ab (#7074, #7076, Cell Signaling) and LumiGLO reagent, 20× Peroxide (#7003, Cell Signaling) is used for visualization. The Hsp90 client protein HER2 is degraded when cells are treated with Hsp90-targeting moieties or SDC-TRAPs of the invention.

## C=CCNC1=C2C[C@@H](C)C[C@H](OC)[C@H](O)[C@@H](C)/C=C(\C)[C@H](OC(N)=O)[C@@H](OC)/C=C\C=C(/C)C(=O)NC(=CC1=O)C2=O [17-AAG]
  degradation of HER2: partial degradation
